Data published in paper PMC11465516, “Kinetic and Structural Studies of the Plastidial Solanum tuberosum Phosphorylase” (ACS Omega, 2024).
Where two headings read alike, the source gives them in different places. Blank lines part the entries; values can stand above or below the compound they belong to.

How the values were obtained:
[1] = molecular target: T1, stPho1 (plastidial Solanum tuberosum phosphorylase) (Solanum tuberosum, UniProt P04045); assay: stPho1 enzyme kinetics in the direction of glycogen synthesis; assay type: biochemical
T1 construct: stPho1 was purified from a natural source; from tissue; host or cells: Solanum tuberosum mature tubers
T1 sequence (P04045 51-966): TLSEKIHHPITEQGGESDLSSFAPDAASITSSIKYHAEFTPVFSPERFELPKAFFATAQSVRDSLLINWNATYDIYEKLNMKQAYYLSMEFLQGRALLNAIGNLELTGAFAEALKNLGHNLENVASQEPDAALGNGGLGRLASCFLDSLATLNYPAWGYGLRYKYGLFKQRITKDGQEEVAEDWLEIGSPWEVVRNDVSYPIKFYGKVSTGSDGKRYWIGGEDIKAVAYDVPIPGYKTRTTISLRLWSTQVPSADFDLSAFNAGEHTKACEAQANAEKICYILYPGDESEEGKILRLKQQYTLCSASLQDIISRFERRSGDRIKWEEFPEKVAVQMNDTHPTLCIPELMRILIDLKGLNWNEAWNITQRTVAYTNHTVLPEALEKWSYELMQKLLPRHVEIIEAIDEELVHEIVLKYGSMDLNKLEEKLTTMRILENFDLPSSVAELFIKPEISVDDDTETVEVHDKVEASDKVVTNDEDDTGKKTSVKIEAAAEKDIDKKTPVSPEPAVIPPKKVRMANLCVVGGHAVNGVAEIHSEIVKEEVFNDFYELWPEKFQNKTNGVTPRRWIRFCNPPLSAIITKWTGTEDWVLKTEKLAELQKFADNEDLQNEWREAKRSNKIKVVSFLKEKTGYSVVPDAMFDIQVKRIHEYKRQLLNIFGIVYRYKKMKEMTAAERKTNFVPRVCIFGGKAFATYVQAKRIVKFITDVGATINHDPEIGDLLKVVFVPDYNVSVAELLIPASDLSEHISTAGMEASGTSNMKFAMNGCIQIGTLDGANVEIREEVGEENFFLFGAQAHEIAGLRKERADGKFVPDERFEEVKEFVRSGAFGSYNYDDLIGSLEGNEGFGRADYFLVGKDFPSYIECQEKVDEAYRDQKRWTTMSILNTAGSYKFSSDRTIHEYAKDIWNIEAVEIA
Excerpt: (§1) In vitro, stPho1 can perform the reverse reaction in the presence of higher concentrations of Glc-1-P, where the enzyme adds glucose residues on glucans with direct release of orthophosphate ions, which can then be measured spectrophotometrically using the method of Saheki et al.[47] Starch granules are composed of two distinct glucose polymers, amylose and amylopectin.[48] Amylopectin is the major polymer in starch and has α-1,4-linked glucose chains with α-1,6-linked branches every 24–30 glucose units, whereas amylose is composed of long α-1,4-linked linear chains. Kinetic studies were performed using glycogen, whose structure is very similar to that of amylopectin but with more branches (every 8–12 glucose units) due to better solubility. Enzyme assays were performed at 30 °C in the direction of glycogen synthesis using 30 μg/mL of stPho1 or ΔPho1 in a 20 mM sodium citrate buffer (pH 6.0) containing 60 mM KCl, 0.6 mM ethylenediaminetetraacetic acid (EDTA), and 0.6 mM dithiothreitol, using constant concentrations of glycogen (0.2% w/v) and various concentrations of Glc-1-P (3, 4, 6, 10, and 15 mM for stPho1 and 1, 2, 3, 4, 6 mM for stPho1ΔL78) and inhibitors. Initial velocities were calculated from the pseudo-first-order rate constants (k) using the first-order rate equation ([A] = [A]0e^–kt), where [A]0 and [A] are the initial concentration of the sample and the sample’s concentration at various times, respectively, and t is the corresponding time (min) following a previously established protocol,[54] and the nonlinear regression program GraFit[50] with an explicit value was used for calculating the standard deviation of each point.[49]
(§2) To establish the optimum pH and temperature for enzyme activity, we first measured the enzymatic activity in the 4.5–8.5 pH range. Kinetic studies were performed in the direction of glycogen synthesis using 50 μg/mL of stPho1 using six different buffers (20 mM sodium acetate buffer for pH 4.5 and 5.5, 20 mM sodium citrate buffer for pH 6.0 and 6.5, and 20 mM Tris–HCl for pH 7.5 and 8.5) containing 60 mM KCl, 0.6 mM EDTA, and 0.6 mM dithiothreitol, using constant concentrations of glycogen (0.2% w/v) and Glc-1-P (14 mM) at 30 °C. […] To determine the optimum temperature for the activity, enzymatic assays were performed at temperatures 20, 30, 37, and 45 °C. Kinetic studies were performed in the direction of glycogen synthesis using 50 μg/mL of stPho1 in a 20 mM sodium citrate buffer (pH 6.0) containing 60 mM KCl, 0.6 mM EDTA, and 0.6 mM dithiothreitol, using constant concentrations of glycogen (0.2% w/v) and Glc-1-P (4 mM). […] Since mammalian muscle phosphorylase activity is dependent on the presence of the allosteric activator AMP,[35] we investigated whether the presence of AMP affects the stPho1 enzymatic activity. The effect was tested with 1 mM AMP, using 30 μg/mL of stPho1 in 20 mM sodium citrate buffer (pH 6.0) containing 60 mM KCl, 0.6 mM EDTA, and 0.6 mM dithiothreitol, using a saturating concentration of glycogen (0.2% w/v) and various concentrations of Glc-1-P (3, 6, 10, and 15 mM).

stPho1ΔL78 [2] = molecular target: T2, stPho1ΔL78 (Solanum tuberosum, UniProt P04045); assay: stPho1ΔL78 enzyme kinetics in the direction of glycogen synthesis; assay type: biochemical
T2 construct: the N-terminal (residues 23–446) and the C-terminal (residues 511–916); from tissue; host or cells: Solanum tuberosum mature tubers; purified stPho1 left about 4 weeks at room temperature to proteolyse
Excerpt: as §1, §2

[3] = tested on: rabbit muscle glycogen phosphorylase b (rmGPb); conditions: cited from earlier work
rmGPa = molecular target: rmGPa; parameters: method as in PMID 12930991, PMID 3805034, PMID 624732; conditions: cited from earlier work
mammalian enzyme (GP) = molecular target: mammalian enzyme (GP); parameters: method as in PMID 32771768; conditions: cited from earlier work
stPho1ΔL78 [4] = assay: stPho1ΔL78 enzyme kinetics in the direction of glycogen synthesis; assay type: biochemical, Solanum tuberosum; conditions: direction of glycan synthesis
Excerpt: as §1, §2

[5] = 30 °C, pH 6.0, glycogen 0.2% w/v
[6] = 30 °C, pH 6.0, glycogen 0.2% w/v, read-out: Km Glc-1-P
[7] = 30 °C, pH 6.0, glycogen 0.2% w/v, various Glc-1-P, read-out: Ki

Effect on stPho1 enzymatic activity (Vmax, Km) ([1]; 1 mM AMP, glycogen 0.2% w/v, Glc-1-P 3-15 mM): does not have any effect
Compound: Nc1ncnc2c1ncn2[C@@H]1O[C@H](COP(=O)(O)O)[C@@H](O)[C@H]1O [AMP]

Compound: O=P(O)(O)O[C@H]1O[C@H](CO)[C@@H](O)[C@H](O)[C@H]1O [Glc-1-P, glucose-1-phosphate]
Vmax Glc-1-P [1, 5]: 0.37 ± 0.01 µmol/min/mg
Km [1, 6]: 2300 ± 200 µM
Vmax Glc-1-P + 1 mM AMP ([1]; + 1 mM AMP, pH 6.0, glycogen 0.2% w/v): 0.39 ± 0.01 µmol/min/mg
Km ([1]; read-out: Km Glc-1-P + 1 mM AMP, + 1 mM AMP, pH 6.0, glycogen 0.2% w/v): 2400 ± 200 µM
Vmax Glc-1-P (stPho1ΔL78 [2]; [5]): 0.32 ± 0.02 µmol/min/mg
Km (stPho1ΔL78 [2]; [6]): 1400 ± 200 µM
Vmax Glc-1-P + 1 mM AMP ([3]; + 1 mM AMP): 64[63] μmol/min/mg
Vmax Glc-1-P [3]: 2.9[63] μmol/min/mg
Km ([3]; read-out: Km Glc-1-P + 1 mM AMP, + 1 mM AMP): 9000 µM
Km ([3]; read-out: Km Glc-1-P): 28000 µM

Compound: C[C@H]1O[C@H](O[C@H]2[C@H](O)[C@@H](O)[C@@H](O[C@H]3[C@H](O)[C@@H](O)C(O)O[C@@H]3CO)O[C@@H]2CO)[C@H](O)[C@@H](O)[C@@H]1N[C@H]1C=C(CO)[C@@H](O)[C@H](O)[C@H]1O (some centres unmarked) [acarbose]
Ki (rmGPa): 26 mM

Compound: Cn1c(=O)c2c(ncn2C)n(C)c1=O [caffeine]
Ki ([3]; in the presence of 1 mM AMP): 0.13 mM

Effect on the enzymatic activity of stPho1 ([1]; up to a concentration of 1 mM): did not have any effect
Compound: O=c1c(O)c(-c2ccc(O)c(O)c2)oc2cc(O)cc(O)c12 [quercetin]
Ki (mammalian enzyme (GP)): 0.032 to 0.069 mM

Compound: OC[C@H]1O[C@H](O)[C@H](O)[C@@H](O)[C@@H]1O [α-D-glucose]
Ki [1, 7]: 42.8 ± 2.6 mM
Ki (stPho1ΔL78 [2]; [7]): 38.4 ± 1.5 mM
Ki ([3]; in the presence of 1 mM AMP): 3.2 mM

Compound: OC[C@H]1O[C@@H]2O[C@H]3[C@H](O)[C@@H](O)[C@@H](O[C@H]4[C@H](O)[C@@H](O)[C@@H](O[C@H]5[C@H](O)[C@@H](O)[C@@H](O[C@H]6[C@H](O)[C@@H](O)[C@@H](O[C@H]7[C@H](O)[C@@H](O)[C@@H](O[C@H]1[C@H](O)[C@H]2O)O[C@@H]7CO)O[C@@H]6CO)O[C@@H]5CO)O[C@@H]4CO)O[C@@H]3CO [α-cyclodextrin]
Ki ([3]; glycogen storage site ligands): 47.1 mM

Compound: OC[C@H]1O[C@@H]2O[C@H]3[C@H](O)[C@@H](O)[C@@H](O[C@H]4[C@H](O)[C@@H](O)[C@@H](O[C@H]5[C@H](O)[C@@H](O)[C@@H](O[C@H]6[C@H](O)[C@@H](O)[C@@H](O[C@H]7[C@H](O)[C@@H](O)[C@@H](O[C@H]8[C@H](O)[C@@H](O)[C@@H](O[C@H]1[C@H](O)[C@H]2O)O[C@@H]8CO)O[C@@H]7CO)O[C@@H]6CO)O[C@@H]5CO)O[C@@H]4CO)O[C@@H]3CO [β-cyclodextrin]
Ki [1]: 0.0731 ± 0.0059 mM
Binding strength in stPho1 relative to rmGPb ([1]; stPho1 forms vs rmGPb): 200–450 times
Ki (stPho1ΔL78 [2]): 0.031 ± 0.001 mM
Ki ([3]; in the presence of 1 mM AMP): 14.1 mM

Compound: OC[C@H]1O[C@@H]2O[C@H]3[C@H](O)[C@@H](O)[C@@H](O[C@H]4[C@H](O)[C@@H](O)[C@@H](O[C@H]5[C@H](O)[C@@H](O)[C@@H](O[C@H]6[C@H](O)[C@@H](O)[C@@H](O[C@H]7[C@H](O)[C@@H](O)[C@@H](O[C@H]8[C@H](O)[C@@H](O)[C@@H](O[C@H]9[C@H](O)[C@@H](O)[C@@H](O[C@H]1[C@H](O)[C@H]2O)O[C@@H]9CO)O[C@@H]8CO)O[C@@H]7CO)O[C@@H]6CO)O[C@@H]5CO)O[C@@H]4CO)O[C@@H]3CO [γ-cyclodextrin]
Ki ([3]; glycogen storage site ligands): 7.4 mM

Compound: glycogen
Km × 1000 glycogen ([1]; 30 °C, pH 6.0): 114.2 ± 7.6%
Km × 1000 glycogen (stPho1ΔL78 [2]; 30 °C, pH 6.0): 60 ± 9%
Affinity of stPho1ΔL78 relative to stPho1 (stPho1ΔL78 [4]): 2 times
Km × 1000 glycogen [3]: 12^1[63] %

Compound: maltoheptaose [maltoheptaose (G7)]
Ki ([3]; glycogen storage site ligands): 1 mM
